ChEMBL document CHEMBL3885861, “Open TG-GATES”

Organism: Rattus norvegicus
Assay: Open TG-GATES - Regimen: Single
Assay type: toxicity, organism-based, Sprague-Dawley
Design: regimen Single, gender Male, age 6 weeks
Conditions: in vivo, po, 450 mg/kg, route gavage, dose level Low; for APTT / Bas / Eos / Fbg / Hb / Ht / Lym / MCH / MCHC / MCV / Mono / Neu / Plat / RBC / Ret / WBC: tissue Blood; for KIDNEY_L / KIDNEY_R / KIDNEY_TOTAL: tissue Kidney; for LIVER: tissue Liver; for ALP / ALT / AST / BUN / CRE / Ca / Cl / DBIL / GLC / IP / K / LDH / Na / PL / RALB / TBIL / TC / TG / TP / gamma-GTP: tissue Plasma

Compound: CC(=O)Oc1ccccc1C(=O)O [ASPIRIN]
- TERMINAL_BW (3 h): 217.1 g
- APTT (3 h): 19.8 s
- Bas (3 h): 0%
- Eos (3 h): 1%
- Fbg (3 h): 230.2 mg/dL
- Hb (3 h): 13.8 g/dL
- Ht (3 h): 38.5%
- Lym (3 h): 70%
- MCH (3 h): 21.2 pg
- MCHC (3 h): 36%
- MCV (3 h): 59 fL
- Mono (3 h): 3.4%
- Neu (3 h): 24.4%
- Plat (3 h): 136.3 x10_4/uL
- RBC (3 h): 653 x10_4/ul
- Ret (3 h): 7.3%
- WBC (3 h): 89.4 x10_2/uL
- KIDNEY_L (3 h): 0.9 g
- KIDNEY_R (3 h): 0.9 g
- KIDNEY_TOTAL (3 h): 1.8 g
- LIVER (3 h): 8.7 g
- ALP (3 h): 1084 IU/L
- ALT (3 h): 45 IU/L
- AST (3 h): 85.8 IU/L
- BUN (3 h): 14.4 mg/dL
- CRE (3 h): 0.4 mg/dL
- Ca (3 h): 9 mg/dL
- Cl (3 h): 103.6 meq/L
- DBIL (3 h): 0.06 mg/dL
- GLC (3 h): 189.2 mg/dL
- IP (3 h): 8.7 mg/dL
- K (3 h): 3.3 meq/L
- LDH (3 h): 228.8 IU/L
- Na (3 h): 141.2 meq/L
- PL (3 h): 96.6 mg/dL
- RALB (3 h): 3.6 g/dL
- TBIL (3 h): 0.1 mg/dL
- TC (3 h): 60.4 mg/dL
- TG (3 h): 20.4 mg/dL
- TP (3 h): 5.7 g/dL
- gamma-GTP (3 h): 1.2 IU/L
- TERMINAL_BW (6 h): 218.6 g
- APTT (6 h): 21.5 s
- Bas (6 h): 0%
- Eos (6 h): 0.8%
- Fbg (6 h): 230.4 mg/dL
- Hb (6 h): 13.9 g/dL
- Ht (6 h): 38.2%
- Lym (6 h): 71%
- MCH (6 h): 22.2 pg
- MCHC (6 h): 36.3%
- MCV (6 h): 61.1 fL
- Mono (6 h): 3.2%
- Neu (6 h): 24%
- Plat (6 h): 124.8 x10_4/uL
- RBC (6 h): 626.8 x10_4/ul
- Ret (6 h): 8.1%
- WBC (6 h): 90.8 x10_2/uL
- KIDNEY_L (6 h): 1 g
- KIDNEY_R (6 h): 1 g
- KIDNEY_TOTAL (6 h): 2 g
- LIVER (6 h): 9 g
- ALP (6 h): 834.4 IU/L
- ALT (6 h): 34.8 IU/L
- AST (6 h): 72.6 IU/L
- BUN (6 h): 14.6 mg/dL
- CRE (6 h): 0.4 mg/dL
- Ca (6 h): 9.2 mg/dL
- Cl (6 h): 105 meq/L
- DBIL (6 h): 0.056 mg/dL
- GLC (6 h): 204 mg/dL
- IP (6 h): 7.7 mg/dL
- K (6 h): 3.4 meq/L
- LDH (6 h): 221.2 IU/L
- Na (6 h): 141 meq/L
- PL (6 h): 113.2 mg/dL
- RALB (6 h): 3.5 g/dL
- TBIL (6 h): 0.1 mg/dL
- TC (6 h): 67.8 mg/dL
- TG (6 h): 32.8 mg/dL
- TP (6 h): 5.6 g/dL
- gamma-GTP (6 h): 1 IU/L
- TERMINAL_BW (9 h): 215.1 g
- APTT (9 h): 21.4 s
- Bas (9 h): 0%
- Eos (9 h): 0.8%
- Fbg (9 h): 220.4 mg/dL
- Hb (9 h): 13.6 g/dL
- Ht (9 h): 38.2%
- Lym (9 h): 68.2%
- MCH (9 h): 21.9 pg
- MCHC (9 h): 35.5%
- MCV (9 h): 61.8 fL
- Mono (9 h): 2.2%
- Neu (9 h): 28%
- Plat (9 h): 124.6 x10_4/uL
- RBC (9 h): 619.4 x10_4/ul
- Ret (9 h): 8.4%
- WBC (9 h): 94.9 x10_2/uL
- KIDNEY_L (9 h): 1 g
- KIDNEY_R (9 h): 1 g
- KIDNEY_TOTAL (9 h): 1.9 g
- LIVER (9 h): 7.9 g
- ALP (9 h): 828 IU/L
- ALT (9 h): 34.4 IU/L
- AST (9 h): 77.4 IU/L
- BUN (9 h): 13.2 mg/dL
- CRE (9 h): 0.4 mg/dL
- Ca (9 h): 9.1 mg/dL
- Cl (9 h): 106.8 meq/L
- DBIL (9 h): 0.05 mg/dL
- GLC (9 h): 201.2 mg/dL
- IP (9 h): 8.3 mg/dL
- K (9 h): 3.4 meq/L
- LDH (9 h): 210.2 IU/L
- Na (9 h): 141.2 meq/L
- PL (9 h): 93.4 mg/dL
- RALB (9 h): 3.3 g/dL
- TBIL (9 h): 0.096 mg/dL
- TC (9 h): 55.2 mg/dL
- TG (9 h): 12.6 mg/dL
- TP (9 h): 5.4 g/dL
- gamma-GTP (9 h): 0.8 IU/L
- TERMINAL_BW (24 h): 217.9 g
- APTT (24 h): 24.7 s
- Bas (24 h): 0.4%
- Eos (24 h): 1%
- Fbg (24 h): 222 mg/dL
- Hb (24 h): 14.4 g/dL
- Ht (24 h): 38.6%
- Lym (24 h): 79.8%
- MCH (24 h): 22.7 pg
- MCHC (24 h): 37.2%
- MCV (24 h): 60.9 fL
- Mono (24 h): 2.2%
- Neu (24 h): 16.2%
- Plat (24 h): 129 x10_4/uL
- RBC (24 h): 633.6 x10_4/ul
- Ret (24 h): 7.2%
- WBC (24 h): 106.4 x10_2/uL
- KIDNEY_L (24 h): 1 g
- KIDNEY_R (24 h): 1 g
- KIDNEY_TOTAL (24 h): 1.9 g
- LIVER (24 h): 9.2 g
- ALP (24 h): 905.4 IU/L
- ALT (24 h): 43.4 IU/L
- AST (24 h): 82.4 IU/L
- BUN (24 h): 15.8 mg/dL
- CRE (24 h): 0.5 mg/dL
- Ca (24 h): 10.4 mg/dL
- Cl (24 h): 104.6 meq/L
- DBIL (24 h): 0.048 mg/dL
- GLC (24 h): 196.4 mg/dL
- IP (24 h): 8.6 mg/dL
- K (24 h): 3.7 meq/L
- LDH (24 h): 199.2 IU/L
- Na (24 h): 141 meq/L
- PL (24 h): 107 mg/dL
- RALB (24 h): 3.5 g/dL
- TBIL (24 h): 0.092 mg/dL
- TC (24 h): 56 mg/dL
- TG (24 h): 39.6 mg/dL
- TP (24 h): 5.6 g/dL
- gamma-GTP (24 h): 1 IU/L
